Experiment [1] relates to tumor necrosis factor-alpha. Description: LPS-induced tumor necrosis factor-alpha in brain and serum of C57BL/6 mice. Type of experiment: in vivo. The note with it: oral KHG25967 10 mg/kg or 20 mg/kg every day for 2 weeks, then LPS 10 mg/kg into brain, 6 hours. The protocol: The animal experiment was performed using C57BL/6 mice ([…], 12-14 weeks old, Harlan Sprague Dawley inc, Indianapolis, Ind., USA) by stereotaxis. The intracerebroventricular (ICV) injection was according to the intracerebroventricular injection system described in Craft et al., 2004b. The mice were grown in an accommodation for SPF (specific pathogen free) under 12 hours light/12 hours dark repeat, and supplied with water and feed as recommended by the accommodation for SPF. The study was reviewed and approved by the Institutional Animal Care and Use Committee (IACUC) of Asan Institute for Life Sciences, Asan Medical Center, which abides by the Institute of Laboratory Animal Resources (ILAR) guide.
The effect of KHG25967 on the change of pro-inflammatory cytokines was examined in vivo using 12-14 week old C57BL/6 mice. The control group was administered with PBS only for 2 weeks and then, further treated with PBS for 6 hours. The LPS group was administered with PBS only for 2 weeks and then, 10 mg/kg of LPS was administered into brain using streotaxis. The KHG25967 treated group was administered with 10 mg/kg or 20 mg/kg of KHG25967 every day for 2 weeks, and then, 10 mg/kg of LPS was administered into brain using streotaxis. […] The changes in the level of pro-inflammatory cytokines (interleukin-1beta and tumor necrosis factor-alpha) in the separated blood and brain were measured.

In another experiment the test system is BV-2 cells. Description: Cell viability (MTT analysis) of beta-amyloid treated BV-2 cells. Type of experiment: cell-based. The note with it: for viability at 0.05 µM: Mus musculus. The protocol: Beta-amyloid (Aβ25-35, Sigma Chemical Co., St. Louis, Mo., USA) was diluted with aseptic desalted water and preservative solution (1 mM, GIBCO), and kept in aliquots at −70° C. To the treatment of beta-amyloid, beta-amyloid preservative solution was diluted to desired concentrations in a treatment medium (DMEM, GIBCO). The reagents were newly provided as a preservative solution (10 mM) under DMSO (dimethylsulfoxide), and diluted in treatment medium to desired concentrations.
BV-2 microglia cells (allotted from Pharmacology Division of Ajou University) were cultivated in DMEM (Dulbecco's Modified Eagle's Medium) supplemented with 5% fetal bovine serum (Invitrogen, Carlsbad, Calif., USA), sou/Ml penicillin (Invitrogen, Carlsbad, Calif., USA), and 50 μg/Ml streptomycin (Invitrogen, Carlsbad, Calif., USA) under the atmosphere condition with 5% CO2 and 95% air at 37° C. The medium was replaced once a day, the cells were plate-cultured in a density according to the scale of each experiment.
BV-2 cells were plate-cultured in 96-well plate at the density of 5×10^4, the cell viability was measured according to a conventional MTT analysis method and lactate dehydrogenase (LDH) analysis method. The MTT analysis depends on the metabolism ability of mitochondria of living cell, and reflexes intracellular redox states. The cultured cells were treated with MTT a solution (final concentration: 1 mg/Ml) for 4 hours. Deep blue formazan crystal generated in the original cells was dissolved in a lysis buffer, and then, the absorbance was detected at 595 nm with microplate reader. The LDH activity released from the culture medium was detected, which was evaluated as a cell death index. The culture medium was added to a reagent (test, Sigma Chemical Co, St. Louis, Mo., USA) containing sodium lactate, NADH and sodium pyruvate, and then, the absorbance reduction by NADH at 340 nm was measured. The result was calculated assuming that the LDH activity in homogenate solution of the non-treated control is 100%.
[…] For microscope analysis, BV-2 cells were used in 6-well plate at the density of 5×10^5 cells/well, for MTT analysis, BV-2 cells were used in 96-well plate at the density of 5×10^4 cells/well.
The obtained prevention effects of KHG25967 compound on toxicity induced by beta-amyloid in BV-2 cells were FIGS. 1A and 1b.
For MTT analysis, BV-2 cells were used on 96-well plate in the density of 5×10^4 cells/well. The quantitative analysis results (unit: %) for the cell viability obtained by MTT analysis were shown in Table 2, wherein the values are represented by the average of three experiments per each concentration.

Like-named read-outs stand apart in the source and are kept apart here.

Broadly, the viability is a read-out of living cells in per cent, often relative to untreated cells. As to `O=C(O)CNC(=O)Nc1nc2ccccc2s1` [KHG25967, 2-(3-benzo[d]thiazole-2-ylureido)acetic acid], the “level of tumor necrosis factor-alpha in blood (serum, FIG. 4D)” value in experiment [1] is “no specific difference”. Also, the “decrease of tumor necrosis factor-alpha level in brain (FIG. 4B)” value in experiment [1] (compared with LPS only as 100%) worked out at 42%. Further, the “protection against nervous cell degeneration by beta-amyloid, compound pre-treated” value in the experiment on BV-2 cells (KHG25967 pre-treated prior to the addition of beta-amyloid, similar to treatment after beta-amyloid) is given as “shows a protective effect against nervous degeneration”. Also, the viability at 0.05 µM in the experiment with BV-2 cells (BV-2, 50 nM KHG25967 for 24 hours after 50 μM beta-amyloid for 2 hours, beta-amyloid only control 35%, read-out: cell viability (FIG. 1B, MTT analysis)) amounted to 83%; in the experiment with BV-2 cells (compound 50 nM for 24 hours after 50 μM beta-amyloid for 2 hours, BV-2 cells, average of three experiments, read-out: cell viability by MTT analysis) it was 83%.

These data come from patent publication US9012481B2, “Benzoarylureido compounds, and composition for prevention or treatment of neurodegenerative brain disease containing the same” (Korea Institute of Science and Technology, priority 2009, dated 2015).
